Laboratory results from PubChem BioAssay AID180 (DTP/NCI, 2004).
Values joined by “and” are separate entries in the source; they are usually repeats but may differ in a detail not shown here. Equal entries are not always repeated.

System: BDF1 mice, Adenocarcinoma 755 s.c., tumor weight T/C
Experiment: NCI In Vivo Anticancer Drug Screen. Data for tumor model Adenocarcinoma 755 (subcutaneous) in B6D2F1 (BDF1) mice
Conditions: endpoint: mean tumor weight, higher = larger tumour
In short: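 Compound activity was tested in mice carrying transplanted tumors. Survival or tumor size was measured, and each value is the treated-group measurement divided by that of the vehicle-treated control group (T/C).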

[1] = dose: 1.25 mg/kg/injection, schedule: Q01DX011 (ip), vehicle: methylcellulose (MC)
[2] = dose: 2.5 mg/kg/injection, schedule: Q01DX011 (ip), vehicle: methylcellulose (MC)
[3] = dose: 5.0 mg/kg/injection, schedule: Q01DX011 (ip), vehicle: methylcellulose (MC)
[4] = dose: 10.0 mg/kg/injection, schedule: Q01DX011 (ip), vehicle: methylcellulose (MC)
[5] = dose: 6.2 mg/kg/injection, schedule: Q01DX011 (ip), vehicle: carboxymethylcellulose (CMC)
[6] = dose: 25.0 mg/kg/injection, schedule: Q01DX011 (ip), vehicle: carboxymethylcellulose (CMC)

COc1ccc(-c2c(C)c(C(=O)O)nc(-c3ccc4c(O)c(OC)c5c(c4n3)=NC(C)(C)N=5)c2N)c(O)c1OC
T/C (dose: 2.5 mg/kg/injection, schedule: Q01DX011 (ip), vehicle: water): 26 % of control
T/C (dose: 2.5 mg/kg/injection, schedule: Q01DX011 (oral), vehicle: water): 6 % of control
T/C (dose: 2.5 mg/kg/injection, schedule: Q## X006 (ip), vehicle: water): 59 % of control
T/C (dose: 2.5 mg/kg/injection, schedule: Q## X006 (oral), vehicle: water): 43 % of control
T/C (dose: 2.5 mg/kg/injection, schedule: Q#A X022 (ip), vehicle: water): 51 % of control
T/C (dose: 5.0 mg/kg/injection, schedule: Q01DX005 (iv), vehicle: water): 58 % of control
T/C (dose: 5.0 mg/kg/injection, schedule: Q01DX006 (ip), vehicle: water): 64 % of control
T/C (dose: 5.0 mg/kg/injection, schedule: Q01DX011 (im), vehicle: water): 64 % of control
T/C (dose: 5.0 mg/kg/injection, schedule: Q01DX011 (ip), vehicle: water): 5 % of control
T/C (dose: 5.0 mg/kg/injection, schedule: Q01DX011 (oral), vehicle: water): 2 % of control
T/C (dose: 5.0 mg/kg/injection, schedule: Q01DX011 (sc), vehicle: water): 13 % of control
T/C (dose: 5.0 mg/kg/injection, schedule: Q## X006 (ip), vehicle: water): 57 % of control
T/C (dose: 5.0 mg/kg/injection, schedule: Q## X006 (oral), vehicle: water): 79 % of control
T/C (dose: 5.0 mg/kg/injection, schedule: Q#A X022 (ip), vehicle: water): 21 % of control
T/C (dose: 7.5 mg/kg/injection, schedule: Q01DX006 (ip), vehicle: water): 63 % of control
T/C (dose: 7.5 mg/kg/injection, schedule: Q#A X022 (ip), vehicle: water): 9 % of control
T/C (dose: 8.0 mg/kg/injection, schedule: Q01DX011 (ip), vehicle: water): 50 % of control
T/C (dose: 10.0 mg/kg/injection, schedule: Q01DX005 (iv), vehicle: water): 26 % of control
T/C (dose: 10.0 mg/kg/injection, schedule: Q01DX006 (ip), vehicle: water): 28 % of control
T/C (dose: 10.0 mg/kg/injection, schedule: Q01DX011 (im), vehicle: water): 13 % of control
T/C (dose: 10.0 mg/kg/injection, schedule: Q01DX011 (sc), vehicle: water): 15 % of control
T/C (dose: 10.0 mg/kg/injection, schedule: Q## X006 (ip), vehicle: water): 19 % of control
T/C (dose: 10.0 mg/kg/injection, schedule: Q## X006 (oral), vehicle: water): 44 % of control
T/C (dose: 12.0 mg/kg/injection, schedule: Q03DX004 (ip), vehicle: water): 62 % of control
T/C (dose: 13.0 mg/kg/injection, schedule: Q01DX011 (ip), vehicle: water): 10 % of control
T/C (dose: 15.0 mg/kg/injection, schedule: Q01DX005 (iv), vehicle: water): 6 % of control
T/C (dose: 15.0 mg/kg/injection, schedule: Q01DX011 (im), vehicle: water): 10 % of control
T/C (dose: 15.0 mg/kg/injection, schedule: Q01DX011 (sc), vehicle: water): 4 % of control
T/C (dose: 18.0 mg/kg/injection, schedule: Q03DX004 (ip), vehicle: water): 38 % of control
T/C (dose: 20.0 mg/kg/injection, schedule: Q01DX011 (ip), vehicle: water): 6 % of control
T/C (dose: 20.0 mg/kg/injection, schedule: Q## X006 (ip), vehicle: water): 39 % of control
T/C (dose: 20.0 mg/kg/injection, schedule: Q## X006 (oral), vehicle: water): 20 % of control
T/C (dose: 22.0 mg/kg/injection, schedule: Q07DX002 (ip), vehicle: water): 48 % of control
T/C (dose: 22.5 mg/kg/injection, schedule: Q01DX005 (iv), vehicle: water): 2 % of control
T/C (dose: 22.5 mg/kg/injection, schedule: Q01DX011 (im), vehicle: water): 1 % of control
T/C (dose: 27.0 mg/kg/injection, schedule: Q03DX004 (ip), vehicle: water): 4 % of control
T/C (dose: 34.0 mg/kg/injection, schedule: Q01DX001 (ip), vehicle: water): 45 % of control and 50 % of control
T/C (dose: 35.0 mg/kg/injection, schedule: Q07DX002 (ip), vehicle: water): 55 % of control
T/C (dose: 44.0 mg/kg/injection, schedule: Q01DX001 (ip), vehicle: water): 52 % of control and 57 % of control
T/C (dose: 50.0 mg/kg/injection, schedule: Q07DX002 (ip), vehicle: water): 8 % of control
T/C (dose: 67.0 mg/kg/injection, schedule: Q01DX001 (ip), vehicle: water): 18 % of control

Nc1nc(SCc2ccncc2)c2[nH]cnc2n1
T/C [1]: 71 % of control
T/C [2]: 41 % of control
T/C [3]: 31 % of control
T/C [4]: 9 % of control and 12 % of control
T/C (dose: 20.0 mg/kg/injection, schedule: Q01DX011 (ip), vehicle: methylcellulose (MC)): 3 % of control

CCCCCn1cnc2c(=S)nc(N)[nH]c21
T/C (dose: 3.1 mg/kg/injection, schedule: Q01DX011 (ip), vehicle: carboxymethylcellulose (CMC)): 112 % of control
T/C [5]: 76 % of control
T/C (dose: 12.5 mg/kg/injection, schedule: Q01DX011 (ip), vehicle: carboxymethylcellulose (CMC)): 28 % of control
T/C [6]: 10 % of control
T/C (dose: 75.0 mg/kg/injection, schedule: Q01DX011 (ip), vehicle: carboxymethylcellulose (CMC)): 2 % of control

CCCc1c(Cl)nc(Cl)nc1Cl
T/C (dose: 17.5 mg/kg/injection, schedule: Q01DX011 (ip), vehicle: carboxymethylcellulose (CMC)): 54 % of control
T/C [6]: 85 % of control
T/C (dose: 35.0 mg/kg/injection, schedule: Q01DX011 (ip), vehicle: carboxymethylcellulose (CMC)): 104 % of control
T/C (dose: 50.0 mg/kg/injection, schedule: Q01DX011 (ip), vehicle: carboxymethylcellulose (CMC)): 43 % of control
T/C (dose: 100.0 mg/kg/injection, schedule: Q01DX011 (ip), vehicle: carboxymethylcellulose (CMC)): 44 % of control

Cn1ccc(N)nc1=O
T/C (dose: 15.0 mg/kg/injection, schedule: Q01DX011 (ip), vehicle: methylcellulose (MC)): 88 % of control
T/C (dose: 31.0 mg/kg/injection, schedule: Q01DX011 (ip), vehicle: methylcellulose (MC)): 108 % of control
T/C (dose: 62.0 mg/kg/injection, schedule: Q01DX011 (ip), vehicle: methylcellulose (MC)): 98 % of control
T/C (dose: 125.0 mg/kg/injection, schedule: Q01DX011 (ip), vehicle: methylcellulose (MC)): 84 % of control

O=C(O)CCCc1ccc(N(CCCl)CCCl)cc1
T/C (dose: 0.5 mg/kg/injection, schedule: Q01DX011 (ip), vehicle: carboxymethylcellulose (CMC)): 93 % of control
T/C (dose: 1.0 mg/kg/injection, schedule: Q01DX011 (ip), vehicle: carboxymethylcellulose (CMC)): 43 % of control
T/C [1]: 31 % of control
T/C (dose: 1.81 mg/kg/injection, schedule: Q01DX011 (ip), vehicle: carboxymethylcellulose (CMC)): 60 % of control
T/C (dose: 1.94 mg/kg/injection, schedule: Q01DX011 (ip), vehicle: carboxymethylcellulose (CMC)): 38 % of control
T/C (dose: 2.0 mg/kg/injection, schedule: Q01DX011 (ip), vehicle: saline): 99 % of control
T/C [2]: 89 % of control
T/C (dose: 3.63 mg/kg/injection, schedule: Q01DX011 (ip), vehicle: carboxymethylcellulose (CMC)): 34 % of control
T/C (dose: 3.88 mg/kg/injection, schedule: Q01DX011 (ip), vehicle: carboxymethylcellulose (CMC)): 37 % of control
T/C (dose: 4.0 mg/kg/injection, schedule: Q01DX011 (ip), vehicle: saline): 49 % of control
T/C [3]: 33 % of control
T/C (dose: 5.8 mg/kg/injection, schedule: Q01DX011 (ip), vehicle: carboxymethylcellulose (CMC)): 41 % of control
T/C [5]: 75 % of control
T/C (dose: 6.25 mg/kg/injection, schedule: Q01DX011 (ip), vehicle: methylcellulose (MC)): 26 % of control
T/C (dose: 7.25 mg/kg/injection, schedule: Q01DX011 (ip), vehicle: carboxymethylcellulose (CMC)): 30 % of control and 48 % of control
T/C (dose: 7.75 mg/kg/injection, schedule: Q01DX011 (ip), vehicle: carboxymethylcellulose (CMC)): 16 % of control and 29 % of control
T/C (dose: 8.0 mg/kg/injection, schedule: Q01DX011 (ip), vehicle: saline): 37 % of control
T/C (dose: 9.66 mg/kg/injection, schedule: Q01DX011 (ip), vehicle: carboxymethylcellulose (CMC)): 9 % of control
T/C [4]: 10 % of control
T/C (dose: 10.33 mg/kg/injection, schedule: Q01DX011 (ip), vehicle: carboxymethylcellulose (CMC)): 14 % of control
T/C (dose: 12.5 mg/kg/injection, schedule: Q01DX011 (ip), vehicle: methylcellulose (MC)): 5 % of control
T/C (dose: 14.5 mg/kg/injection, schedule: Q01DX011 (ip), vehicle: carboxymethylcellulose (CMC)): 2 % of control and 6 % of control
T/C (dose: 15.5 mg/kg/injection, schedule: Q01DX011 (ip), vehicle: carboxymethylcellulose (CMC)): 4 % of control
T/C (dose: 1812.0 micrograms/kg/injection, schedule: Q01DX011 (ip), vehicle: carboxymethylcellulose (CMC)): 118 % of control
T/C (dose: 3625.0 micrograms/kg/injection, schedule: Q01DX011 (ip), vehicle: carboxymethylcellulose (CMC)): 58 % of control
T/C (dose: 7250.0 micrograms/kg/injection, schedule: Q01DX011 (ip), vehicle: carboxymethylcellulose (CMC)): 59 % of control
